Measurements from PubChem BioAssay AID1963968 (Molecular Pharmacology Branch, DTP, NCI, 2024).

System: 945468-187-T-J3-PDC spheroids with HUVEC/MSC, viability
Test: Anticancer human tumor 945468-187-T-J3-PDC patient-derived rectal carcinoma cell line growth inhibition [PI3K]
Settings: for IC50: curve of first compound; for viability, T/C: stronger effect = lower value
In short: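 Stroma-containing spheroids: tumor line, pooled-donor HUVEC, hMSC. Treatments: targeted agents with PI3K inhibitors. Dosing: clinically relevant, half-log spacing, 10 microM ceiling without known Cmax. Read-out: cell viability.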

[1] = second compound 0.0316 µM, first compound 0.0316 µM
[2] = second compound 0.0316 µM, first compound 0.1 µM
[3] = second compound 0.0316 µM, first compound 0.316 µM
[4] = second compound 0.0316 µM, first compound 1 µM
[5] = second compound 0.1 µM, first compound 0.0316 µM
[6] = second compound 0.1 µM, first compound 0.1 µM
[7] = second compound 0.1 µM, first compound 0.316 µM
[8] = second compound 0.1 µM, first compound 1 µM
[9] = second compound 0.316 µM, first compound 0.0316 µM
[10] = second compound 0.316 µM, first compound 0.1 µM
[11] = second compound 0.316 µM, first compound 0.316 µM
[12] = second compound 0.316 µM, first compound 1 µM
[13] = second compound 1 µM, first compound 0.0316 µM
[14] = second compound 1 µM, first compound 0.1 µM
[15] = second compound 1 µM, first compound 0.316 µM
[16] = second compound 1 µM, first compound 1 µM
[17] = second compound 3.16 µM, first compound 0.0316 µM
[18] = second compound 3.16 µM, first compound 0.1 µM
[19] = second compound 3.16 µM, first compound 0.316 µM
[20] = second compound 3.16 µM, first compound 1 µM
[21] = second compound 10 µM, first compound 0.0316 µM
[22] = second compound 10 µM, first compound 0.1 µM
[23] = second compound 10 µM, first compound 0.316 µM
[24] = second compound 10 µM, first compound 1 µM
[25] = second compound 0.0316 µM, first compound 0.00316 µM
[26] = second compound 0.0316 µM, first compound 0.01 µM
[27] = second compound 0.1 µM, first compound 0.00316 µM
[28] = second compound 0.1 µM, first compound 0.01 µM
[29] = second compound 0.316 µM, first compound 0.00316 µM
[30] = second compound 0.316 µM, first compound 0.01 µM
[31] = second compound 1 µM, first compound 0.00316 µM
[32] = second compound 1 µM, first compound 0.01 µM
[33] = second compound 3.16 µM, first compound 0.00316 µM
[34] = second compound 3.16 µM, first compound 0.01 µM
[35] = second compound 10 µM, first compound 0.00316 µM
[36] = second compound 10 µM, first compound 0.01 µM
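Further: spheroids exposed to agents for 7 days before viability read.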
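Wherever viability, T/C is given: 100% = DMSO vehicle control viability.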

With CC(C)NCC(C(=O)N1CCN(c2ncnc3c2C(C)CC3O)CC1)c1ccc(Cl)cc1 (stereo unspecified) + CC(Nc1ncnc2nc[nH]c12)c1cc2cccc(Cl)c2c(=O)n1-c1ccccc1 as the compound, how does the IC50 (second compound 0.0316 µM) read?
Its IC50 is 4580 nM.

What about the IC50 (second compound 0.1 µM) of the same compound?
The IC50 was 6840 nM.

And the IC50 (second compound 0.316 µM)?
Its IC50 is 6660 nM.

What about the IC50 (second compound 1 µM) of the same compound?
The IC50 was 8310 nM.

What about the IC50 (second compound 3.16 µM) of the same compound?
Its IC50 is 2970 nM.

What about the IC50 (second compound 10 µM) of the same compound?
The IC50 was 2060 nM.

And the viability, T/C [1]?
The viability, T/C was 112%.

And the viability, T/C [2]?
The viability, T/C was 100%.

And the viability, T/C [3]?
The viability, T/C was 104%.

What about the viability, T/C [4] of the same compound?
Its viability, T/C is 78.9%.

And the viability, T/C (second compound 0.0316 µM, first compound 3.16 µM)?
The viability, T/C was 56.3%.

What about the viability, T/C (second compound 0.0316 µM, first compound 10 µM) of the same compound?
Its viability, T/C is 38.4%.

And the viability, T/C [5]?
The viability, T/C was 119%.

What about the viability, T/C [6] of the same compound?
Its viability, T/C is 92.3%.

And the viability, T/C [7]?
The viability, T/C was 86%.

What about the viability, T/C [8] of the same compound?
The viability, T/C was 88.6%.

What about the viability, T/C (second compound 0.1 µM, first compound 3.16 µM) of the same compound?
The viability, T/C was 62.6%.

And the viability, T/C (second compound 0.1 µM, first compound 10 µM)?
Its viability, T/C is 40.5%.

What about the viability, T/C [9] of the same compound?
Its viability, T/C is 97.2%.

What about the viability, T/C [10] of the same compound?
Its viability, T/C is 93.2%.

And the viability, T/C [11]?
Its viability, T/C is 94.6%.

And the viability, T/C [12]?
Its viability, T/C is 87.6%.

What about the viability, T/C (second compound 0.316 µM, first compound 3.16 µM) of the same compound?
The viability, T/C was 63.5%.

What about the viability, T/C (second compound 0.316 µM, first compound 10 µM) of the same compound?
The viability, T/C was 42.7%.

And the viability, T/C [13]?
Its viability, T/C is 114%.

What about the viability, T/C [14] of the same compound?
The viability, T/C was 103%.

And the viability, T/C [15]?
Its viability, T/C is 85.3%.

What about the viability, T/C [16] of the same compound?
Its viability, T/C is 86%.

And the viability, T/C (second compound 1 µM, first compound 3.16 µM)?
Its viability, T/C is 58.6%.

And the viability, T/C (second compound 1 µM, first compound 10 µM)?
The viability, T/C was 48.1%.

And the viability, T/C [17]?
Its viability, T/C is 98.3%.

And the viability, T/C [18]?
The viability, T/C was 91.8%.

What about the viability, T/C [19] of the same compound?
The viability, T/C was 84.2%.

What about the viability, T/C [20] of the same compound?
The viability, T/C was 79.2%.

And the viability, T/C (second compound 3.16 µM, first compound 3.16 µM)?
The viability, T/C was 46.5%.

And the viability, T/C (second compound 3.16 µM, first compound 10 µM)?
The viability, T/C was 32.4%.

What about the viability, T/C [21] of the same compound?
The viability, T/C was 90.7%.

And the viability, T/C [22]?
The viability, T/C was 88%.

What about the viability, T/C [23] of the same compound?
Its viability, T/C is 82.8%.

What about the viability, T/C [24] of the same compound?
The viability, T/C was 70.8%.

What about the viability, T/C (second compound 10 µM, first compound 3.16 µM) of the same compound?
Its viability, T/C is 37.5%.

And the viability, T/C (second compound 10 µM, first compound 10 µM)?
Its viability, T/C is 28.2%.

Which IC50 (second compound 0.0316 µM) does the source give for CCN1CCN(Cc2ccc(Nc3ncc(F)c(-c4cc(F)c5nc(C)n(C(C)C)c5c4)n3)nc2)CC1 + CC(Nc1ncnc2nc[nH]c12)c1cc2cccc(Cl)c2c(=O)n1-c1ccccc1 here?
Its IC50 is greater than 1000 nM.

What about the IC50 (second compound 0.1 µM) of the same compound?
The IC50 was greater than 1000 nM.

What about the IC50 (second compound 0.316 µM) of the same compound?
Its IC50 is greater than 1000 nM.

What about the IC50 (second compound 1 µM) of the same compound?
Its IC50 is greater than 1000 nM.

And the IC50 (second compound 3.16 µM)?
Its IC50 is greater than 1000 nM.

What about the IC50 (second compound 10 µM) of the same compound?
Its IC50 is 762 nM.

And the viability, T/C [25]?
Its viability, T/C is 88.7%.

And the viability, T/C [26]?
Its viability, T/C is 110%.

What about the viability, T/C [1] of the same compound?
Its viability, T/C is 107%.

What about the viability, T/C [2] of the same compound?
Its viability, T/C is 94%.

What about the viability, T/C [3] of the same compound?
The viability, T/C was 102%.

And the viability, T/C [4]?
The viability, T/C was 79.2%.

What about the viability, T/C [27] of the same compound?
Its viability, T/C is 91.5%.

What about the viability, T/C [28] of the same compound?
The viability, T/C was 85.3%.

What about the viability, T/C [5] of the same compound?
The viability, T/C was 99%.

What about the viability, T/C [6] of the same compound?
Its viability, T/C is 99.5%.

What about the viability, T/C [7] of the same compound?
Its viability, T/C is 102%.

What about the viability, T/C [8] of the same compound?
The viability, T/C was 72%.

And the viability, T/C [29]?
Its viability, T/C is 97.3%.

What about the viability, T/C [30] of the same compound?
The viability, T/C was 91%.

What about the viability, T/C [9] of the same compound?
Its viability, T/C is 89.8%.

What about the viability, T/C [10] of the same compound?
Its viability, T/C is 113%.

What about the viability, T/C [11] of the same compound?
The viability, T/C was 106%.

And the viability, T/C [12]?
The viability, T/C was 72.8%.

What about the viability, T/C [31] of the same compound?
Its viability, T/C is 87.8%.

And the viability, T/C [32]?
Its viability, T/C is 95.9%.

What about the viability, T/C [13] of the same compound?
The viability, T/C was 91.3%.

What about the viability, T/C [14] of the same compound?
Its viability, T/C is 103%.

And the viability, T/C [15]?
Its viability, T/C is 93.8%.

And the viability, T/C [16]?
Its viability, T/C is 69.2%.

What about the viability, T/C [33] of the same compound?
The viability, T/C was 93.9%.

And the viability, T/C [34]?
The viability, T/C was 101%.

What about the viability, T/C [17] of the same compound?
Its viability, T/C is 103%.

And the viability, T/C [18]?
The viability, T/C was 95.1%.

And the viability, T/C [19]?
Its viability, T/C is 93%.

And the viability, T/C [20]?
The viability, T/C was 52.5%.

What about the viability, T/C [35] of the same compound?
Its viability, T/C is 91.5%.

And the viability, T/C [36]?
Its viability, T/C is 89.5%.

And the viability, T/C [21]?
Its viability, T/C is 91%.

What about the viability, T/C [22] of the same compound?
Its viability, T/C is 106%.

What about the viability, T/C [23] of the same compound?
Its viability, T/C is 90%.

And the viability, T/C [24]?
The viability, T/C was 37.1%.

What does the source list for Cn1ncnc1[C@H]1c2n[nH]c(=O)c3cc(F)cc(c23)N[C@@H]1c1ccc(F)cc1 + CC(Nc1ncnc2nc[nH]c12)c1cc2cccc(Cl)c2c(=O)n1-c1ccccc1?
IC50 (second compound 0.0316 µM): > 100 nM; IC50 (second compound 0.1 µM): > 100 nM; IC50 (second compound 0.316 µM): > 100 nM; IC50 (second compound 1 µM): > 100 nM; IC50 (second compound 3.16 µM): > 100 nM; IC50 (second compound 10 µM): > 100 nM; viability, T/C (second compound 0.0316 µM, first compound 0.000316 µM): 105%; viability, T/C (second compound 0.0316 µM, first compound 0.001 µM): 87.4%; viability, T/C [25]: 91.7%; viability, T/C [26]: 82.9%; viability, T/C [1]: 101%; viability, T/C [2]: 92.4%; viability, T/C (second compound 0.1 µM, first compound 0.000316 µM): 94.2%; viability, T/C (second compound 0.1 µM, first compound 0.001 µM): 87.8%; viability, T/C [27]: 97.8%; viability, T/C [28]: 85.6%; viability, T/C [5]: 89.3%; viability, T/C [6]: 97.8%; viability, T/C (second compound 0.316 µM, first compound 0.000316 µM): 97.5%; viability, T/C (second compound 0.316 µM, first compound 0.001 µM): 95.8%; viability, T/C [29]: 90.1%; viability, T/C [30]: 103%; viability, T/C [9]: 88%; viability, T/C [10]: 101%; viability, T/C (second compound 1 µM, first compound 0.000316 µM): 85.2%; viability, T/C (second compound 1 µM, first compound 0.001 µM): 109%; viability, T/C [31]: 98.5%; viability, T/C [32]: 86.8%; viability, T/C [13]: 104%; viability, T/C [14]: 105%; viability, T/C (second compound 3.16 µM, first compound 0.000316 µM): 103%; viability, T/C (second compound 3.16 µM, first compound 0.001 µM): 99.8%; viability, T/C [33]: 95.1%; viability, T/C [34]: 100%; viability, T/C [17]: 102%; viability, T/C [18]: 104%; viability, T/C (second compound 10 µM, first compound 0.000316 µM): 101%; viability, T/C (second compound 10 µM, first compound 0.001 µM): 97.5%; viability, T/C [35]: 106%; viability, T/C [36]: 95.7%; viability, T/C [21]: 96.9%; viability, T/C [22]: 102%
